What follows are compounds tested against T1, Recombinant human HSD17B13 enzyme (Homo sapiens, UniProt Q7Z5P4) (assay: HSD17b13 NAD(P)H-Glo biochemical assay). Details: 50 uM estradiol, 1 mM NAD+, NAD(P)H-Glo luminescence; read-out: HSD17β13 IC50.
T1 sequence (Q7Z5P4 20-300): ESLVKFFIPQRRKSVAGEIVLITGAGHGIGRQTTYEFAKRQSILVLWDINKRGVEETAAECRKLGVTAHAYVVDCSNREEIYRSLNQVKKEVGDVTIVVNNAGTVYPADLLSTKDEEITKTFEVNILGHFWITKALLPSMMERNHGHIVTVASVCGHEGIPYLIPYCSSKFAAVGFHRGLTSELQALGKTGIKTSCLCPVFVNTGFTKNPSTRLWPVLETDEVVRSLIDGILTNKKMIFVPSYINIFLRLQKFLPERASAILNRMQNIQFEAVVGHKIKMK
Procedure, shortened: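 Recombinant human HSD17B13 in 20 mM Tris pH7.4 with 0.002% Tween-20 and 0.02% BSA was preincubated with inhibitor for 20 minutes at RT. The reaction ran 3 hours at 37° C with 50 uM estradiol and 1 mM NAD+ (final). NADH formed was detected by NAD(P)H-Glo luminescence after 1 hour at RT.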
With `Cn1nc(-c2cc(C(F)(F)F)c(F)c(O)c2F)c2cnc(N3CCOCC3C3CC3)cc21` (stereo not drawn) [Compound 9.38, 3-(6-(3-Cyclopropylmorpholino)-1-methyl-1H-pyrazolo[4,3-c]pyridin-3-yl)-2,6-difluoro-5-(trifluoromethyl)phenol] the IC50 was less than 100 nM.
`CN(c1ncc2c(-c3cc(C(F)(F)F)c(F)c(O)c3F)nn(C)c2n1)C1CCOCC1` [Compound 9.39, 2,6-Difluoro-3-(1-methyl-6-(methyl(tetrahydro-2H-pyran-4-yl)amino)-1H-pyrazolo[3,4-d]pyrimidin-3-yl)-5-(trifluoromethyl)phenol] gave an IC50 of less than 100 nM.
`CN(c1ccc2c(-c3cc(C(F)(F)F)c(F)c(O)c3F)nn(C)c2n1)C1CCOCC1` [Compound 9.40, 2,6-Difluoro-3-(1-methyl-6-(methyl(tetrahydro-2H-pyran-4-yl)amino)-1H-pyrazolo[3,4-b]pyridin-3-yl)-5-(trifluoromethyl)phenol] showed an IC50 of less than 100 nM.
Compound `Cn1nc(-c2cc(C(F)(F)F)c(F)c(O)c2F)c2ccc(N3CCOCC34CCC4)nc21` [Compound 9.41, 2,6-Difluoro-3-(1-methyl-6-(8-oxa-5-azaspiro[3.5]nonan-5-yl)-1H-pyrazolo[3,4-b]pyridin-3-yl)-5-(trifluoromethyl)phenol] has an IC50 of less than 100 nM.
Compound `Cn1nc(-c2cc(C(F)(F)F)c(F)c(O)c2F)c2cnc(N3CC4CCC3CC4)cc21` [Compound 9.42, 3-(6-(2-Azabicyclo[2.2.2]octan-2-yl)-1-methyl-1H-pyrazolo[4,3-c]pyridin-3-yl)-2,6-difluoro-5-(trifluoromethyl)phenol] has an IC50 of less than 100 nM.
For `Cn1nc(-c2cc(C(F)(F)F)c(F)c(O)c2F)c2cnc(N3CCNC(=O)C34CC4)cc21` [Compound 9.43, 4-(3-(2,4-Difluoro-3-hydroxy-5-(trifluoromethyl)phenyl)-1-methyl-1H-pyrazolo[4,3-c]pyridin-6-yl)-4,7-diazaspiro[2.5]octan-8-one], the IC50 was less than 100 nM.
`CN(c1cc2c(cn1)c(-c1cc(C(F)(F)F)c(F)c(O)c1F)nn2C)C1CCCOC1` (stereo not drawn) [Compound 9.44, 2,6-Difluoro-3-(1-methyl-6-(methyl(tetrahydro-2H-pyran-3-yl)amino)-1H-pyrazolo[4,3-c]pyridin-3-yl)-5-(trifluoromethyl)phenol] showed an IC50 of less than 100 nM.
With `CCC1COCCN1c1cc2c(cn1)c(-c1cc(C(F)(F)F)c(F)c(O)c1F)nn2C` (stereo not drawn) [Compound 9.45, 3-(6-(3-Ethylmorpholino)-1-methyl-1H-pyrazolo[4,3-c]pyridin-3-yl)-2,6-difluoro-5-(trifluoromethyl)phenol] the IC50 was less than 100 nM.
`CCN(c1cc2c(cn1)c(-c1cc(C(F)(F)F)c(F)c(O)c1F)nn2C)C1CCC1` [Compound 9.46, 3-(6-(Cyclobutyl(ethyl)amino)-1-methyl-1H-pyrazolo[4,3-c]pyridin-3-yl)-2,6-difluoro-5-(trifluoromethyl)phenol] gave an IC50 of less than 100 nM.
`COC1CCN(c2cc3c(cn2)c(-c2cc(C(F)(F)F)c(F)c(O)c2F)nn3C)CC1` [Compound 9.47, 2,6-Difluoro-3-(6-(4-methoxypiperidin-1-yl)-1-methyl-1H-pyrazolo[4,3-c]pyridin-3-yl)-5-(trifluoromethyl)phenol] was tested, and the IC50 was less than 100 nM.
`Cn1nc(-c2cc(C(F)(F)F)c(F)c(O)c2F)c2cnc(N3CCOC4(CC4)C3)cc21` [Compound 9.48, 2,6-Difluoro-3-(1-methyl-6-(4-oxa-7-azaspiro[2.5]octan-7-yl)-1H-pyrazolo[4,3-c]pyridin-3-yl)-5-(trifluoromethyl)phenol] gave an IC50 of less than 100 nM.
`Cn1nc(-c2cc(C(F)(F)F)c(F)c(O)c2F)c2cnc(N3CCC(O)CC34CC4)cc21` (stereo not drawn) [Compound 9.49, 4-(3-(2,4-Difluoro-3-hydroxy-5-(trifluoromethyl)phenyl)-1-methyl-1H-pyrazolo[4,3-c]pyridin-6-yl)-4-azaspiro [2.5]octan-7-ol] showed an IC50 of less than 100 nM.
`COCCN(c1cc2c(cn1)c(-c1cc(C(F)(F)F)c(F)c(O)c1F)nn2C)C1CCOCC1` [Compound 9.50, 2,6-Difluoro-3-(6-((2-methoxyethyl)(tetrahydro-2H-pyran-4-yl)amino)-1-methyl-1H-pyrazolo[4,3-c]pyridin-3-yl)-5-(trifluoromethyl)phenol] was tested, and the IC50 was less than 100 nM.
For `Cn1nc(-c2cc(C(F)(F)F)c(F)c(O)c2F)c2cnc(N(CC3CC3)C3CCC3)cc21` [Compound 9.51, 3-(6-(Cyclobutyl(cyclopropylmethyl)amino)-1-methyl-1H-pyrazolo[4,3-c]pyridin-3-yl)-2,6-difluoro-5-(trifluoromethyl)phenol], the IC50 was less than 100 nM.
`CC(C)C1COCCN1c1cc2c(cn1)c(-c1cc(C(F)(F)F)c(F)c(O)c1F)nn2C` (stereo not drawn) [Compound 9.52, 2,6-Difluoro-3-(6-(3-isopropylmorpholino)-1-methyl-1H-pyrazolo[4,3-c]pyridin-3-yl)-5-(trifluoromethyl)phenol] gave an IC50 of less than 100 nM.
With `Cn1nc(-c2cc(C(F)(F)F)c(F)c(O)c2F)c2cnc(N3CCNC4(CC4)C3=O)cc21` [Compound 9.53, 7-(3-(2,4-Difluoro-3-hydroxy-5-(trifluoromethyl)phenyl)-1-methyl-1H-pyrazolo[4,3-c]pyridin-6-yl)-4,7-diazaspiro[2.5]octan-8-one] the IC50 was 100 to 1000 nM.
`Oc1c(F)c(-c2nn(C3CCOCC3)c3cc(N4CCOCC45CC5)ncc23)cc(C(F)(F)F)c1F` [Compound 9.54, 3-(6-(7-Oxa-4-azaspiro[2.5]octan-4-yl)-1-(tetrahydro-2H-pyran-4-yl)-1H-pyrazolo[4,3-c]pyridin-3-yl)-2,6-difluoro-5-(trifluoromethyl)phenol] showed an IC50 of less than 100 nM.
Compound `Oc1c(F)c(-c2nn(C3COC3)c3cc(N4CCOCC45CC5)ncc23)cc(C(F)(F)F)c1F` [Compound 9.55, 2,6-Difluoro-3-(1-(oxetan-3-yl)-6-(7-oxa-4-azaspiro [2.5]octan-4-yl)-1H-pyrazolo[4,3-c]pyridin-3-yl)-5-(trifluoromethyl)phenol] has an IC50 of less than 100 nM.
Work on `Oc1c(F)c(-c2nn(C3CCC3)c3cc(N4CCOCC45CC5)ncc23)cc(C(F)(F)F)c1F` [Compound 9.56, 3-(1-Cyclobutyl-6-(7-oxa-4-azaspiro[2.5]octan-4-yl)-1H-pyrazolo[4,3-c]pyridin-3-yl)-2,6-difluoro-5-(trifluoromethyl)phenol] yielded an IC50 of less than 100 nM.
In the case of `Cn1nc(-c2cc(C(F)(F)F)c(F)c(O)c2F)c2cnc(N3CCOCC3)cc21` [Compound 9.57, 2,6-Difluoro-3-(1-methyl-6-morpholino-1H-pyrazolo[4,3-c]pyridin-3-yl)-5-(trifluoromethyl)phenol], the IC50 is reported as less than 100 nM.
`Cn1nc(-c2cc(C(F)(F)F)c(F)c(O)c2F)c2cnc(N3CCCOCC3)cc21` [Compound 9.58, 2,6-Difluoro-3-(1-methyl-6-(1,4-oxazepan-4-yl)-1H-pyrazolo[4,3-c]pyridin-3-yl)-5-(trifluoromethyl)phenol] showed an IC50 of less than 100 nM.
With `Cn1nc(-c2cc(C(F)(F)F)c(F)c(O)c2F)c2cnc(N3CCCCC34CCC4)cc21` [Compound 9.59, 2,6-Difluoro-3-(1-methyl-6-(5-azaspiro[3.5]nonan-5-yl)-1H-pyrazolo[4,3-c]pyridin-3-yl)-5-(trifluoromethyl)phenol] the IC50 was less than 100 nM.
Compound `COCC1COCCN1c1cc2c(cn1)c(-c1cc(C(F)(F)F)c(F)c(O)c1F)nn2C` (stereo not drawn) [Compound 9.60, 2,6-Difluoro-3-(6-(3-(methoxymethyl)morpholino)-1-methyl-1H-pyrazolo[4,3-c]pyridin-3-yl)-5-(trifluoromethyl)phenol] has an IC50 of less than 100 nM.
Work on `Cn1nc(-c2cc(C(F)(F)F)c(F)c(O)c2F)c2cnc(N3CCOCC3C3(C)CC3)cc21` (stereo not drawn) [Compound 9.61, 2,6-Difluoro-3-(1-methyl-6-(3-(1-methylcyclopropyl)morpholino)-1H-pyrazolo[4,3-c]pyridin-3-yl)-5-(trifluoromethyl)phenol] yielded an IC50 of less than 100 nM.
For `CC(=O)N1CCN(c2cc3c(cn2)c(-c2cc(C(F)(F)F)c(F)c(O)c2F)nn3C)CC1` [Compound 9.62, 1-(4-(3-(2,4-Difluoro-3-hydroxy-5-(trifluoromethyl)phenyl)-1-methyl-1H-pyrazolo[4,3-c]pyridin-6-yl)piperazin-1-yl)ethanone], the IC50 was 100 to 1000 nM.
For `CC(C)N1CCN(c2cc3c(cn2)c(-c2cc(C(F)(F)F)c(F)c(O)c2F)nn3C)CC1=O` [Compound 9.63, 4-(3-(2,4-Difluoro-3-hydroxy-5-(trifluoromethyl)phenyl)-1-methyl-1H-pyrazolo[4,3-c]pyridin-6-yl)-1-isopropylpiperazin-2-one], the IC50 was less than 100 nM.
Compound `CN(CC1CCOCC1)c1cc2c(cn1)c(-c1cc(C(F)(F)F)c(F)c(O)c1F)nn2C` [Compound 9.64, 2,6-Difluoro-3-(1-methyl-6-(methyl((tetrahydro-2H-pyran-4-yl)methyl)amino)-1H-pyrazolo[4,3-c]pyridin-3-yl)-5-(trifluoromethyl)phenol] has an IC50 of less than 100 nM.
Work on `CN(C)C(=O)C1CN(c2cc3c(cn2)c(-c2cc(C(F)(F)F)c(F)c(O)c2F)nn3C)CCO1` (stereo not drawn) [Compound 9.65, 4-(3-(2,4-Difluoro-3-hydroxy-5-(trifluoromethyl)phenyl)-1-methyl-1H-pyrazolo[4,3-c]pyridin-6-yl)-N,N-dimethylmorpholine-2-carboxamide] yielded an IC50 of 100 to 1000 nM.
`CC(=O)N1CCC(N(C)c2cc3c(cn2)c(-c2cc(C(F)(F)F)c(F)c(O)c2F)nn3C)CC1` [Compound 9.66, 1-(4-((3-(2,4-Difluoro-3-hydroxy-5-(trifluoromethyl)phenyl)-1-methyl-1H-pyrazolo[4,3-c]pyridin-6-yl)(methyl)amino)piperidin-1-yl)ethanone] gave an IC50 of less than 100 nM.
In the case of `Cn1nc(-c2cc(C(F)(F)F)c(F)c(O)c2F)c2cnc(N3CCOCC3C3CCC3)cc21` (stereo not drawn) [Compound 9.67, 3-(6-(3-Cyclobutylmorpholino)-1-methyl-1H-pyrazolo[4,3-c]pyridin-3-yl)-2,6-difluoro-5-(trifluoromethyl)phenol], the IC50 is reported as less than 100 nM.

From patent publication US20240083861A1, “HSD17B13 INHIBITORS AND USES THEREOF” (FL2022-001, Inc., priority 2020, published 2024)
